Data on six molecules can be found in patent US20170283834A1, “Processes for Producing A Fermentation Product Using A Fermenting Organism” (Novozymes A/S, priority 2014, published 2017).

Where a chain is given by its changes, count along the chain named. Names and notes keep the numbering of the source.

For one series, the system named is Ethanol Red™. Description: Addition of acetate to ethanol fermentations (SSF of corn mash). As to conditions: for % change over no added acetate: glycerol.
Series [1] has as its system zein. Briefly: Zein-BCA assay, temperature profile of purified protease variants. The format is biochemical. As for the experimental part: Selected variants showing good thermo-stability were purified and the purified enzymes were used in a zein-BCA assay as described below. The remaining protease activity was determined at 60° C. after incubation of the enzyme at elevated temperatures as indicated for 60 min.
Zein-BCA assay was performed to detect soluble protein quantification released from zein by variant proteases at various temperatures.
• 1) Mix 10 ul of 10 ug/ml enzyme solutions and 100 ul of 0.025% zein solution in a micro titer plate (MTP). • 2) Incubate at various temperatures for 60 min. • 3) Add 10 ul of 100% trichloroacetic acid (TCA) solution. • 4) Centrifuge MTP at 3500 rpm for 5 min. • 5) Take out 15 ul to a new MTP containing 100 ul of BCA assay solution (Pierce Cat#:23225, BCA Protein Assay Kit). • 6) Incubate for 30 min. at 60° C. • 7) Measure A562.

Series [2] deals with zein. Description: Relative activity assay of protease variants (zein micro titer plate). The format is biochemical. A digest of the protocol:
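Relative activity is the ratio of zein clearance (A630 turbidity) at a higher versus lower temperature, e.g. 60/65 °C or 70/80 °C. Supernatants from 3-day yeast cultures applied to 0.05-0.1% zein agar in 20 mM sodium acetate pH 4.5 with zinc, incubated at least 4 h.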

Setting [3] is: Sample incubated 60 min at 60° C.
The mark [4] stands for this setting: Sample incubated 60 min at 70° C.
Where [5] appears, read: Sample incubated 60 min at 75° C.
Setting [6] is: Sample incubated 60 min at 80° C.
Setting [7] is: Sample incubated 60 min at 85° C.
[8] abbreviates: Sample incubated 60 min at 90° C.
The mark [9] stands for this setting: Sample incubated 60 min at 95° C.

Procedure for Ethanol Red™: The yeast strain tested in this experiment was Ethanol […] ). […] After a total of 30 minutes, the flasks were removed from the water bath. Total yeast concentration was determined using the YC-100 in duplicate. LactrolTM (PhibroChem) was added to each mash to a final concentration of 24 ppm. […] Approximately 5 grams of each of the resulting mashes was transferred to test tubes having a 1/64 hole drilled in the top to allow CO2 release. […] Yeast was dosed at 5×10e6 cells/g mash. Milli-Q water was added to each tube so that a total volume of liquid added (enzyme+MQ water+acid) to each tube would be equally proportionate to the mash weight. Fermentations took place in a 32° C. water bath for 54 hours. Samples were vortexed periodically (in the morning and in the evening) throughout the fermentation. […] Fermentation sampling took place after 48 and 54 hours of fermentation by sacrificing 3 tubes per treatment. […] All samples were processed without further dilution. Samples were stored at 4° C. prior to and during HPLC analysis. Samples were analyzed for sugars (DP4+, DP3, DP2, glucose, and fructose), organic acids (lactic and acetic), glycerol, and ethanol.

For the molecule `CC(=O)O` [Acetate, acetic acid], the “Glycerol levels with added acetate” value in the series on Ethanol Red™ was “reduced”. In addition, the “48 Hour ETOH (w/v %)” value in the series with Ethanol Red™ (Added Acetate 5 mM, 48 hours) turned out to be 13.55 w/v %; in the series with Ethanol Red™ (Added Acetate 10 mM, 48 hours), 13.66 w/v %; in the series with Ethanol Red™ (Added Acetate 20 mM, 48 hours), 13.77 w/v %; in the series with Ethanol Red™ (Added Acetate 40 mM, 48 hours) it was 13.82 w/v %; in the series with Ethanol Red™ (Added Acetate 60 mM, 48 hours) it was 13.88 w/v %; with Ethanol Red™ (Added Acetate 120 mM, 48 hours), 12.92 w/v %. Moreover, the “48 Hour Glycerol (w/v %)” value with Ethanol Red™ (Added Acetate 5 mM, 48 hours) is reported as 1.636 w/v %; with Ethanol Red™ (Added Acetate 10 mM, 48 hours), 1.553 w/v %; in the series on Ethanol Red™ (Added Acetate 20 mM, 48 hours), 1.462 w/v %; with Ethanol Red™ (Added Acetate 40 mM, 48 hours), 1.365 w/v %; in the series with Ethanol Red™ (Added Acetate 60 mM, 48 hours), 1.332 w/v %; in the series with Ethanol Red™ (Added Acetate 120 mM, 48 hours) it was 1.337 w/v %. For the same molecule, the “% Boost over no added acetate” value is given as 0.28% with Ethanol Red™ (Added Acetate 5 mM, 48 hours); 0.97% in the series with Ethanol Red™ (Added Acetate 5 mM, 54 hours); 1.07% with Ethanol Red™ (Added Acetate 10 mM, 48 hours); 1.10% with Ethanol Red™ (Added Acetate 10 mM, 54 hours); 1.88% in the series on Ethanol Red™ (Added Acetate 20 mM, 48 hours); 1.90% with Ethanol Red™ (Added Acetate 20 mM, 54 hours). Moreover, the “% Boost over no added acetate” value in the series on Ethanol Red™ (Added Acetate 40 mM, 48 hours) was 2.29%; in the series on Ethanol Red™ (Added Acetate 40 mM, 54 hours), 1.84%; in the series with Ethanol Red™ (Added Acetate 60 mM, 48 hours) it was 2.71%; in the series on Ethanol Red™ (Added Acetate 60 mM, 54 hours), 1.84%; in the series on Ethanol Red™ (Added Acetate 120 mM, 48 hours) it was −4.41%; with Ethanol Red™ (Added Acetate 120 mM, 54 hours), −4.68%. Also, the “54 Hour ETOH (w/v %)” value is recorded as 13.71 w/v % in the series on Ethanol Red™ (Added Acetate 5 mM, 54 hours); 13.73 w/v % with Ethanol Red™ (Added Acetate 10 mM, 54 hours); 13.83 w/v % in the series on Ethanol Red™ (Added Acetate 20 mM, 54 hours); 13.83 w/v % in the series on Ethanol Red™ (Added Acetate 40 mM, 54 hours); 13.83 w/v % in the series on Ethanol Red™ (Added Acetate 60 mM, 54 hours); 12.94 w/v % in the series on Ethanol Red™ (Added Acetate 120 mM, 54 hours). The “54 Hour Glycerol (w/v %)” value with Ethanol Red™ (Added Acetate 5 mM, 54 hours) was 1.625 w/v %; with Ethanol Red™ (Added Acetate 10 mM, 54 hours), 1.569 w/v %; with Ethanol Red™ (Added Acetate 20 mM, 54 hours), 1.45 w/v %; in the series with Ethanol Red™ (Added Acetate 40 mM, 54 hours), 1.365 w/v %; in the series on Ethanol Red™ (Added Acetate 60 mM, 54 hours), 1.323 w/v %; with Ethanol Red™ (Added Acetate 120 mM, 54 hours) it was 1.34 w/v %. For the same molecule, the “% change over no added acetate” value in the series on Ethanol Red™ (Added Acetate 5 mM, 48 hours) was −4.68%; in the series with Ethanol Red™ (Added Acetate 5 mM, 54 hours), −3.86%; in the series with Ethanol Red™ (Added Acetate 10 mM, 48 hours), −9.53%; in the series with Ethanol Red™ (Added Acetate 10 mM, 54 hours), −7.18%; in the series with Ethanol Red™ (Added Acetate 20 mM, 48 hours) it was −14.85%; with Ethanol Red™ (Added Acetate 20 mM, 54 hours), −14.21%. Also, the “% change over no added acetate” value in the series on Ethanol Red™ (Added Acetate 40 mM, 48 hours) is −20.48%; in the series with Ethanol Red™ (Added Acetate 40 mM, 54 hours), −19.21%; with Ethanol Red™ (Added Acetate 60 mM, 48 hours), −22.40%; in the series on Ethanol Red™ (Added Acetate 60 mM, 54 hours) it was −21.70%; in the series with Ethanol Red™ (Added Acetate 120 mM, 48 hours) it was −22.09%; with Ethanol Red™ (Added Acetate 120 mM, 54 hours), −20.68%.

B1: WT: wild type Thermoascus aurantiacus M35 metallo protease, mature peptide amino acids 1 to 177 of SEQ ID NO: 3, no substitution (protein, listed as Thermoascus aurantiacus)
chain: MRLVASLTALVALSVPVFPAAVNVKRASSYLEITLSQVSNTLIKAVVQNTGSDELSFVHLNFFKDPAPVKKVSVYRDGSEVQFEGILSRYKSTGLSRDAFTYLAPGESVEDVFDIASTYDLTSGGPVTIRTEGVVPYATANSTDIAGYISYSSNVLTIDVDGAAAATVSKAITPLDR
B1: the “Bovine serum albumin equivalent peptide released” value in the series with zein [1] (setting [3]) amounted to 94 µg/mL; in the series with zein [1] (setting [4]), 103 µg/mL; with zein [1] (setting [5]) it was 107 µg/mL; with zein [1] (setting [6]), 93 µg/mL; in the series with zein [1] (setting [7]), 58 µg/mL; in the series on zein [1] (setting [8]), 38 µg/mL. Besides, in the series with zein [2] (Table 2), the “Relative activity 65° C./60° C.” value is 31%. In addition, in the series with zein [2] (Table 3), the “Relative activity 70° C./65° C.” value is 59%. In addition, the “Relative activity 75° C./65° C.” value with zein [2] (Table 3) was 17%.

B2: JTP050: protease variant of SEQ ID NO: 3: D79L/S87P/A112P/D142L (protein, listed as Thermoascus aurantiacus)
chain: MRLVASLTALVALSVPVFPAAVNVKRASSYLEITLSQVSNTLIKAVVQNTGSDELSFVHLNFFKDPAPVKKVSVYRDGSEVQFEGILSRYKSTGLSRDAFTYLAPGESVEDVFDIASTYDLTSGGPVTIRTEGVVPYATANSTDIAGYISYSSNVLTIDVDGAAAATVSKAITPLDRRTRISSCSGSRQSALTTALRNAASLANAAADAAQSGSASKFSEYFKTTSSSTRQTVAARLRAVAREASSSSSGATTYYCLDPYGYCSPNVLAYTLPSYNIIANCDIFYTYLPPLTSTCHAQDQATTALHEFTHAPGVYSPGTLDLAYGYQAAMGLSSSQAVMNADTYALYANAIYLGC
For B2, the “Bovine serum albumin equivalent peptide released” value in the series on zein [1] (setting [3]) is 86 µg/mL; in the series with zein [1] (setting [4]) it was 101 µg/mL; with zein [1] (setting [5]), 107 µg/mL; in the series with zein [1] (setting [6]) it was 107 µg/mL; in the series with zein [1] (setting [7]), 104 µg/mL; in the series with zein [1] (setting [8]), 63 µg/mL. Moreover, in the series on zein [1] (setting [9]), the “Bovine serum albumin equivalent peptide released” value was determined as 36 µg/mL. In the series with zein [2] (Table 3), the “Relative activity 75° C./65° C.” value is listed as 88%. The “Relative activity 75° C./70° C.” value in the series with zein [2] (Table 5, upper part) was found to be 55%. In addition, the “Relative activity 80° C./70° C.” value with zein [2] (Table 5, upper part) is given as 23%. Moreover, in the series on zein [2] (Table 5, upper part), the “Relative activity 85° C./70° C.” value came out at 9%.

B3: JTP196: protease variant of SEQ ID NO: 3: A27K D79L Y82F S87G D104P A112P A126V D142L (protein, listed as Thermoascus aurantiacus)
chain: B2 chain with A205K, Y260F, P265G, D282P, A304V
As to B3, the “Bovine serum albumin equivalent peptide released” value in the series with zein [1] (setting [3]) came to 87 µg/mL; in the series with zein [1] (setting [4]), 99 µg/mL; with zein [1] (setting [5]), 103 µg/mL; with zein [1] (setting [6]), 106 µg/mL; in the series on zein [1] (setting [7]), 117 µg/mL; in the series on zein [1] (setting [8]), 90 µg/mL. Besides, the “Bovine serum albumin equivalent peptide released” value in the series with zein [1] (setting [9]) was determined as 38 µg/mL. Besides, the “Relative activity 75° C./70° C.” value in the series on zein [2] (Table 5, lower part) was 102%. Further, the “Relative activity 80° C./70° C.” value in the series on zein [2] (Table 5, lower part) is recorded as 55%. The “Relative activity 85° C./70° C.” value with zein [2] (Table 5, upper part) was 18%.

B4: JTP077: protease variant of SEQ ID NO: 3: A27K/D79L/S87P/A112P/D142L (protein, listed as Thermoascus aurantiacus)
chain: B2 chain with A205K
As to B4, the “Bovine serum albumin equivalent peptide released” value with zein [1] (setting [3]) is 82 µg/mL; in the series on zein [1] (setting [4]) it was 94 µg/mL; in the series on zein [1] (setting [5]), 104 µg/mL; in the series on zein [1] (setting [6]), 105 µg/mL; with zein [1] (setting [7]), 99 µg/mL; in the series with zein [1] (setting [8]) it was 56 µg/mL. Moreover, the “Bovine serum albumin equivalent peptide released” value in the series on zein [1] (setting [9]) was determined as 31 µg/mL. Further, the “Relative activity 75° C./65° C.” value in the series with zein [2] (Table 3) came out at 106%.

B5: JTP188: protease variant of SEQ ID NO: 3: D79L Y82F S87G D104P A112P D142L (protein, listed as Thermoascus aurantiacus)
chain: B2 chain with Y260F, P265G, D282P
As for B5, the “Bovine serum albumin equivalent peptide released” value in the series with zein [1] (setting [3]) turned out to be 71 µg/mL; with zein [1] (setting [4]), 83 µg/mL; with zein [1] (setting [5]) it was 86 µg/mL; with zein [1] (setting [6]) it was 93 µg/mL; in the series on zein [1] (setting [7]) it was 100 µg/mL; in the series with zein [1] (setting [8]) it was 75 µg/mL. Further, in the series on zein [1] (setting [9]), the “Bovine serum albumin equivalent peptide released” value was determined as 53 µg/mL. The “Relative activity 80° C./70° C.” value in the series with zein [2] (Table 5, upper part) is on record as 43%.
